{"source": "patent US20030135033A1", "about": "“Compounds and methods for the identification and/ or validation of a target” (priority 2002, published 2003)", "key": {"PTEN mRNA": {"system": "PTEN mRNA", "assay": "Immunoblot of PTEN and phosphorylated Akt after GeneBloc transfection of 3Y1 cells", "format": "cell-based, rat", "method": "A total of three different antisense oligonucleotides, also referred to as geneblocs herein, namely PTEN 48, PTEN 57 and PTEN 53 were transfected into rat-embryo fibroblast cell line together with a negative control comprising a randomised sequence (also referred to herein as GBC). More particularly, 3Y1 cells on 10 cm plates were transfected with 15 or 30 nM of the three different PTEN specific Geneblocs 48, 57 and 53 and with GBC. After 48 h cells were harvested and the cell extracts were analyzed by immunoblotting for the relative protein amounts of p110, Akt, phosphorylated Akt (P*-Akt) and PTEN as indicated on the right. […] The concentration dependency of the antisense oligonucleotides can be particularly well seen from the use of PTEN 57 and PTEN 53 and was confirmed by further experiments. The most powerful antisense oligonucleotide among said three antisense oligonucleotides was PTEN 53. P110 was used as a marker to reflect the loading of each of the lanes.\nIn the corresponding experiment PTEN 53 was used as the antisense oligonucleotide and a total of four mismatches were introduced to the particular sequence with the total length of PTEN 57 being 23 nucleotides. Again, GBC was used as a negative control. The sequence of the mismatch oligonucleotide is BucucauuTsTssCssTspl sTssTssGssTssGsscucacgaB (SEQ ID No. 33) with B representing an inverted abasic nucleotide. In addition an antisense oligonucleotide was prepared specific for the mRNA of luciferase inhibiting luciferase expression in cells engineered to express the recombinant firefly gene. The respective lane on the Western blot is designated as “luc”. The same experiment was carried out using either 30 nM or 60 nM antisense oligonucleotide. As mentioned in connection with FIG. 3, P110 serves as an internal loading standard.\nTransfections were carried out in 96 well or 10-cm plates (at 30% to 50% confluency) by using various cationic lipids such as Oligofectamine, Lipofectamine (Life Technologies), NC388 (Ribozyme Pharmaceuticals, Inc., Boulder, CO), or FuGene 6 (Roche) according to the manufacturer's instructions. […] molecules, including third generation antisense molecules, were transfected by adding pre-formed 5× concentrated complex of GeneBloc and lipid in serum-free medium to cells in complete medium. The total transfection volume was 100 μl for cells plated in 96 wells and 10 ml for cells in 10 cm plates. The final lipid concentration was 0.8 to 1.2 μg/ml depending on cell density; the GeneBloc concentration is indicated in each experiment.\nCells were washed twice with cold phosphate-buffered saline and lysed at 4° C. in lysis buffer containing 20 mM Tris (pH 7.5), 137 mM NaCl, 15% (vol/vol) glycerol, 1% (vol/vol) Nonidet P-40 (NP-40), 2 mM phenylmethylsulfonyl fluoride, […], 20 mM leupeptin, 2 mM benzamidine, 1 mM sodium vanadate, 25 mM […]-glycerol phosphate, 50 mM NaF and 10 mM NaPPi. Lysates were cleared by centrifugation at 14,000× g for 5 minutes and aliquots of the lysates were analyzed for protein expression by Western-blotting: Samples were separated by SDS-PAGE and transferred to nitrocellulose-filters (Schleicher & Schuell). Filters were blocked in TBST buffer (10 mM Tris-HCl (pH 7.5), 150 mM NaCl, 0.05% (vol/vol) Tween 20, 0.5% (wt/vol) sodium azide) containing 5% (wt/vol) dried milk. The respective antibodies were added in TBST at appropriate dilutions. Bound antibody was detected using anti-mouse- or anti-rabbit-conjugated horse radish peroxidase (Transduction Laboratories, BD) in TBST, washed, and developed using the SuperSignal West Dura (Pierce) or ECL (Amersham) chemoluminescence substrates. […]\nTo further ensure that Akt phosphorylation is not caused by an artefact or by stress imposed through the transfection conditions we tested various negative control third generation antisense molecules (negative control GeneBlocs). […]"}, "Hela cells": {"system": "Hela cells", "assay": "Cell growth on matrigel", "format": "cell-based, human", "conditions": "48 h transfection, then 48 to 72 h on matrigel, versus control GeneBloc", "description": "More particularly, a schematic pathway with PTEN inhibiting PI-3K activity is shown which would normally phosphorylate Akt thus leading to proliferation, survival and migration of HeLa cells as a model system for PTEN +/+ cells. FIG. 9 B presents the Western immunoblot analysis of an experiment studying the influence of PTEN specific antisense oligonucleotide or a control antisense nucleotide designated as mismatch GeneBloc™. PTEN is only present in the control sample, but is absent when PTEN-specific antisense oligonucleotides are used. The successful knockdown of PTEN causes phosphorylation of Akt, indicative of induction of the signalling pathway. […] Growth on matrigel is used as a surrogate in vitro assay for metastatic or invasive cell growth. […]\nLoss of PTEN function has been correlated with an increased metastatic growth potential in late stage human cancers (Cantley, L. C. and Neel, B. G. (1999). New insights into tumor suppression: PTEN suppresses tumor formation by restraining the phosphoinositide 3-kinase/AKT pathway. Proc Natl Acad Sci U S A 96, 4240-4245; Ali, I. U. (2000). Gatekeeper for endometrium: the PTEN tumor suppressor gene. J Natl Cancer Inst 92, 861-863). […] HeLa cells expressing an inducible version of a constitutively active PI 3-kinase, p110* […] were analyzed in parallel. […]"}, "[1]": {"conditions": "30 nM or 60 nM, PTEN 53 versus negative control GeneBlocs"}, "[2]": {"conditions": "3Y1 cells, 15 or 30 nM GeneBloc, 48 h"}, "[3]": {"conditions": "3Y1 cells, 15 or 30 nM GeneBloc, 48 h, listed as PTEN GeneBloc 53"}}}
{"substance": "ucuccuuTTGTTTCTGcuaacga (UCUCCUUTTGTTTCTGCUAACGA; chemistry not fully specified) [PTEN 53, third generation antisense oligonucleotide (GeneBloc) against PTEN]", "values": [{"measurement": "PTEN protein / PTEN mRNA degradation (immunoblot)", "setting": "PTEN mRNA; [1]", "value": "inhibited PTEN expression"}, {"measurement": "phosphorylated Akt (P*-Akt) (immunoblot)", "setting": "PTEN mRNA; [1]", "value": "resulted in the phosphorylation of Akt"}, {"measurement": "phosphorylated Akt (P*-Akt) (immunoblot)", "setting": "PTEN mRNA; 30 nM or 60 nM, PTEN 53 versus negative control GeneBlocs, listed as PTEN GeneBloc 53", "value": "caused an increase in Akt phosphorylation"}, {"measurement": "PTEN protein (immunoblot)", "setting": "PTEN mRNA; [2]", "value": "no longer present"}, {"measurement": "phosphorylated Akt (P*-Akt) (immunoblot)", "setting": "PTEN mRNA; [2]", "value": "phosphorylated Akt could be detected"}, {"measurement": "PTEN protein (immunoblot)", "setting": "PTEN mRNA; [3]", "value": "most efficient knock down in PTEN expression"}, {"measurement": "phosphorylated Akt (P*-Akt) (immunoblot)", "setting": "PTEN mRNA; [3]", "value": "strongest increase in Akt phosphorylation"}, {"measurement": "ranking among the three PTEN antisense oligonucleotides", "setting": "PTEN mRNA; 3Y1 cells, 15 or 30 nM, 48 h", "value": "most powerful"}, {"measurement": "growth on matrigel", "setting": "Hela cells", "value": "increased potential to form network structures on matrigel and grew better"}]}
